Experimental data from patent US9511134B2, “Inducing immune responses to influenza virus using polypeptide and nucleic acid compositions” (priority 2006, dated 2016).

Columns and labels:
Test in all cases: biochemical
Format in all cases: binding
DRB1*0101 = molecular target: T1, DRB1*0101 (Homo sapiens, UniProt P01903+P01911, A100R/D57E/F55L/F60I/F76Y/I96L/L162R/M171V/P40L/Q125E/R42F/V115G/Y59C); details: IC50 nM to purified HLA DRB1*0101
T1 construct: made in house; host or cells: EBV-transformed homozygous human B cell lines, transfected fibroblasts or single-allele 721.221 transfectants

DRB1*1302 = DRB1*1302 (Homo sapiens, UniProt P01903+P01911, A100E/A169T/K41T/L162R/M171V/P40S/Q125H/Q178H/Q39Y/Q99D/R42S/S66N/T262R/V115G/W38E/Y61H); details: read-out: IC50 nM to purified HLA DRB1*1302
Sequence of DRB1*1302 (P01903 26-254 limits assumed, other chains not shown): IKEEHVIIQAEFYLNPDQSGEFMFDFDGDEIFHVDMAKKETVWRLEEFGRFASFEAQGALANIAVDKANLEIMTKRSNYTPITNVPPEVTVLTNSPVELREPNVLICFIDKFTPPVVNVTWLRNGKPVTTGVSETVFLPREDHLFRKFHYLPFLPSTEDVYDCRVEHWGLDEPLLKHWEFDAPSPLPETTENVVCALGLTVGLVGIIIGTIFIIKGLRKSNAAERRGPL

DRB1*0401 = molecular target: T2, DRB1*0401 (Homo sapiens, UniProt P01903+P01911, A100K/A169T/F76Y/I96L/K127E/L162R/M171V/N62H/P40V/Q125Y/R42H/S133A/S149N/S66Y/V115G/V209L/W38E); details: read-out: IC50 nM to purified HLA DRB1*0401
T2 construct: made in house; host or cells: EBV-transformed homozygous human B cell lines, transfected fibroblasts or single-allele 721.221 transfectants

DRB1*1501 = molecular target: T3, DRB1*1501 (Homo sapiens, UniProt P01903+P01911); details: read-out: IC50 nM to purified HLA DRB1*1501
T3 construct: made in house; host or cells: EBV-transformed homozygous human B cell lines, transfected fibroblasts or single-allele 721.221 transfectants

CC[C@H](C)[C@H](NC(=O)[C@H](Cc1ccc(O)cc1)NC(=O)[C@@H](NC(=O)[C@@H](NC(=O)[C@@H]1CCCN1)[C@@H](C)O)[C@@H](C)O)C(=O)N[C@@H](CO)C(=O)N[C@H](C(=O)NCC(=O)N[C@H](C(=O)N[C@@H](CO)C(=O)N[C@H](C(=O)N[C@@H](CC(C)C)C(=O)N[C@@H](CC(N)=O)C(=O)N[C@@H](CCC(N)=O)C(=O)N[C@@H](CCCNC(=N)N)C(=O)N[C@@H](CC(C)C)C(=O)O)[C@@H](C)O)[C@@H](C)O)C(C)C [Flu.HA.210] showed an IC50 (DRB1*0101) of 190 nM, an IC50 (DRB1*1302) of 957 nM and an IC50 (DRB1*0401) of 59 nM.
Work on CC[C@H](C)[C@H](NC(=O)[C@H](C)NC(=O)[C@H](CC(=O)O)NC(=O)[C@H](CC(N)=O)NC(=O)[C@@H]1CCCN1C(=O)[C@H](CCCCN)NC(=O)[C@H](CC(C)C)NC(=O)[C@@H](NC(=O)[C@@H](NC(=O)[C@H](Cc1c[nH]c2ccccc12)NC(=O)[C@H](Cc1ccccc1)NC(=O)[C@H](Cc1ccccc1)NC(=O)[C@H](CCC(=O)O)NC(=O)[C@H](CCSC)NC(=O)[C@@H](N)CCCNC(=N)N)[C@@H](C)O)[C@@H](C)CC)C(=O)O [Flu.HA.241] yielded an IC50 (DRB1*0101) of 62 nM.
Compound CC[C@H](C)[C@H](NC(=O)[C@H](C)NC(=O)[C@H](CC(=O)O)NC(=O)[C@H](CC(N)=O)NC(=O)[C@@H]1CCCN1C(=O)[C@H](CCCCN)NC(=O)[C@H](CC(C)C)NC(=O)[C@@H](NC(=O)[C@@H](NC(=O)[C@@H](N)Cc1c[nH]c2ccccc12)[C@@H](C)O)[C@@H](C)CC)C(=O)N[C@@H](CC(N)=O)C(=O)N[C@@H](Cc1ccccc1)C(=O)N[C@@H](CCC(=O)O)C(=O)N[C@@H](CO)C(=O)N[C@@H](CC(N)=O)C(=O)O [Flu.HA.246] has an IC50 (DRB1*1302) of 31 nM.
With CC(C)C[C@H](NC(=O)CNC(=O)[C@@H](NC(=O)[C@H](C)NC(=O)[C@H](CC(C)C)NC(=O)[C@@H](NC(=O)[C@H](CC(C)C)NC(=O)[C@H](CCCNC(=N)N)NC(=O)[C@@H](N)CC(N)=O)C(C)C)[C@@H](C)O)C(=O)N[C@@H](CCCNC(=N)N)C(=O)N[C@@H](CC(N)=O)C(=O)N[C@@H](CO)C(=O)N1CCC[C@H]1C(=O)N[C@@H](CCC(N)=O)C(=O)N[C@@H](CCCNC(=N)N)C(=O)O [Flu.HA.325] the IC50 (DRB1*0101) was 69 nM.
CC(C)C[C@H](NC(=O)[C@H](CCCCN)NC(=O)[C@@H](NC(=O)[C@H](CO)NC(=O)[C@H](C)NC(=O)[C@@H](NC(=O)[C@H](C)NC(=O)[C@H](CCCCN)NC(=O)[C@H](CCC(=O)O)NC(=O)[C@@H](NC(=O)[C@H](CC(C)C)NC(=O)[C@H](Cc1ccccc1)NC(=O)[C@H](CC(N)=O)NC(=O)[C@@H](NC(=O)[C@@H](N)CC(N)=O)[C@@H](C)O)[C@@H](C)O)C(C)C)C(C)C)C(=O)N[C@@H](C)C(=O)O [Flu.NA.51] was tested, and the IC50 (DRB1*1501) was 47 nM.
For CC[C@H](C)[C@H](NC(=O)CNC(=O)[C@H](CC(N)=O)NC(=O)[C@H](Cc1ccc(O)cc1)NC(=O)[C@H](CCCCN)NC(=O)[C@H](CC(C)C)NC(=O)[C@@H](NC(=O)[C@H](C)NC(=O)[C@@H](N)C(C)C)C(C)C)C(=O)N[C@H](C(=O)N[C@H](C(=O)N[C@@H](CC(=O)O)C(=O)N[C@H](C(=O)N[C@H](C(=O)N[C@@H](CCCCN)C(=O)N[C@@H](CO)C(=O)N[C@@H](Cc1c[nH]c2ccccc12)C(=O)O)[C@@H](C)CC)[C@@H](C)O)[C@@H](C)O)[C@@H](C)CC [Flu.NA.183], the IC50 (DRB1*0101) was 3390 nM, the IC50 (DRB1*0401) was 319 nM and the IC50 (DRB1*1501) was 19 nM.
Compound CC[C@H](C)[C@H](NC(=O)[C@H](CCCCN)NC(=O)[C@@H](N)Cc1c[nH]cn1)C(=O)N[C@@H](Cc1ccccc1)C(=O)N[C@@H](CCCCN)C(=O)N[C@@H](CCSC)C(=O)N[C@@H](CCC(=O)O)C(=O)N[C@@H](CCCCN)C(=O)NCC(=O)N[C@@H](CCCCN)C(=O)N[C@H](C(=O)N[C@H](C(=O)N[C@@H](CCCCN)C(=O)N[C@@H](CO)C(=O)N[C@H](C(=O)N[C@@H](CCC(=O)O)C(=O)N[C@@H](CC(C)C)C(=O)O)C(C)C)C(C)C)C(C)C [Flu.NA.233] has an IC50 (DRB1*0101) of 64 nM.
CC[C@H](C)[C@H](NC(=O)[C@@H](NC(=O)[C@H](CCSC)NC(=O)[C@H](CC(=O)O)NC(=O)[C@@H](NC(=O)[C@H](CC(C)C)NC(=O)[C@H](Cc1ccc(O)cc1)NC(=O)[C@H](CCCNC(=N)N)NC(=O)[C@H](CO)NC(=O)[C@H](C)N)[C@@H](C)O)[C@@H](C)O)C(=O)N[C@@H](CCC(=O)O)C(=O)N[C@@H](CCC(=O)O)C(=O)N[C@@H](CCSC)C(=O)N[C@@H](CO)C(=O)N[C@@H](CCCNC(=N)N)C(=O)O [Flu.NS1.89] was tested, and the IC50 (DRB1*0101) was 6030 nM and the IC50 (DRB1*0401) was 67 nM.
Compound CC[C@H](C)[C@H](NC(=O)[C@H](CC(C)C)NC(=O)[C@@H](NC(=O)[C@H](CCC(=O)O)NC(=O)[C@H](CC(C)C)NC(=O)[C@H](CCCNC(=N)N)NC(=O)[C@H](CC(=O)O)NC(=O)[C@H](Cc1ccccc1)NC(=O)[C@@H](NC(=O)[C@@H](NC(=O)[C@H](CO)NC(=O)[C@H](Cc1ccccc1)NC(=O)[C@@H](N)CC(N)=O)C(C)C)[C@@H](C)CC)[C@@H](C)O)C(=O)N[C@@H](CC(C)C)C(=O)N[C@@H](CC(C)C)C(=O)O [Flu.NS1.136] has an IC50 (DRB1*0101) of 17 nM and an IC50 (DRB1*1501) of 6930 nM.
In the case of CC[C@H](C)[C@H](NC(=O)[C@H](CCC(=O)O)NC(=O)[C@H](CCC(N)=O)NC(=O)[C@H](CCC(=O)O)NC(=O)[C@@H](NC(=O)[C@H](CCC(=O)O)NC(=O)[C@H](Cc1ccccc1)NC(=O)[C@@H](N)CC(C)C)C(C)C)C(=O)N[C@@H](CCCNC(=N)N)C(=O)N[C@H](C(=O)N[C@@H](Cc1ccccc1)C(=O)N[C@@H](CO)C(=O)N[C@@H](Cc1ccccc1)C(=O)N[C@@H](CCC(N)=O)C(=O)N[C@@H](CC(C)C)C(=O)O)[C@@H](C)O [Flu.NS2.182], the IC50 (DRB1*0401) is reported as 8800 nM.
CC(C)C[C@H](NC(=O)[C@H](Cc1c[nH]cn1)NC(=O)[C@H](CO)NC(=O)[C@@H](N)CCCNC(=N)N)C(=O)N[C@@H](CCCNC(=N)N)C(=O)N[C@@H](CC(N)=O)C(=O)N[C@@H](CC(=O)O)C(=O)N[C@H](C(=O)N[C@@H](CC(=O)O)C(=O)N[C@H](C(=O)N[C@H](C(=O)N[C@@H](CC(N)=O)C(=O)N[C@@H](Cc1ccccc1)C(=O)N[C@H](C(=O)N[C@@H](CO)C(=O)O)C(C)C)C(C)C)C(C)C)[C@@H](C)O [Flu.PA.511] gave an IC50 (DRB1*0401) of 200 nM.
CC[C@H](C)[C@H](NC(=O)[C@@H](NC(=O)[C@H](CCC(=O)O)NC(=O)[C@H](CCSC)NC(=O)[C@@H](N)[C@@H](C)O)C(C)C)C(=O)N[C@@H](CCC(N)=O)C(=O)N[C@@H](CCC(N)=O)C(=O)N[C@H](C(=O)N[C@@H](CCCNC(=N)N)C(=O)N[C@H](C(=O)N[C@@H](CC(=O)O)C(=O)N[C@@H](CCCCN)C(=O)N[C@@H](CC(C)C)C(=O)N[C@H](C(=O)N[C@@H](CCC(N)=O)C(=O)O)[C@@H](C)O)C(C)C)[C@@H](C)O [Flu.PB1.113] showed an IC50 (DRB1*1302) of 180 nM.
CC[C@H](C)[C@H](NC(=O)[C@H](CCC(=O)O)NC(=O)[C@H](CCSC)NC(=O)[C@H](CCC(=O)O)NC(=O)[C@H](CCC(=O)O)NC(=O)[C@@H](N)CCCCN)C(=O)N[C@H](C(=O)N[C@H](C(=O)N[C@@H](Cc1c[nH]cn1)C(=O)N[C@@H](Cc1ccccc1)C(=O)N[C@@H](CCC(N)=O)C(=O)N[C@@H](CCCNC(=N)N)C(=O)N[C@@H](CCCCN)C(=O)N[C@@H](CCCNC(=N)N)C(=O)N[C@@H](CCCNC(=N)N)C(=O)O)[C@@H](C)O)[C@@H](C)O [Flu.PB1.179] showed an IC50 (DRB1*0101) of 1400 nM.
CSCC[C@H](NC(=O)[C@H](CO)NC(=O)[C@H](Cc1ccccc1)NC(=O)[C@H](CC(N)=O)NC(=O)[C@H](C)NC(=O)[C@@H](N)C(C)C)C(=O)N[C@@H](CCC(=O)O)C(=O)N[C@@H](CC(C)C)C(=O)N1CCC[C@H]1C(=O)N[C@@H](CO)C(=O)N[C@@H](Cc1ccccc1)C(=O)NCC(=O)N[C@H](C(=O)N[C@@H](CO)C(=O)NCC(=O)O)C(C)C [Flu.PB1.505] gave an IC50 (DRB1*0101) of 20 nM and an IC50 (DRB1*0401) of 17 nM.
CSCC[C@H](NC(=O)[C@H](CC(C)C)NC(=O)[C@H](CCC(=O)O)NC(=O)[C@@H](N)Cc1c[nH]c2ccccc12)C(=O)N[C@@H](CC(=O)O)C(=O)N[C@@H](CCC(=O)O)C(=O)N[C@@H](CC(=O)O)C(=O)N[C@@H](Cc1ccc(O)cc1)C(=O)N[C@@H](CCC(N)=O)C(=O)NCC(=O)N[C@@H](CCCNC(=N)N)C(=O)N[C@@H](CC(C)C)C(=O)N[C@@H](CS)C(=O)N[C@@H](CC(N)=O)C(=O)N1CCC[C@H]1C(=O)O [Flu.PB1.616] gave an IC50 (DRB1*0401) of 480 nM.
CC[C@H](C)[C@H](NC(=O)CNC(=O)[C@H](CCCNC(=N)N)NC(=O)[C@H](CCC(N)=O)NC(=O)[C@H](CO)NC(=O)[C@@H](NC(=O)[C@H](CC(N)=O)NC(=O)[C@H](CC(C)C)NC(=O)[C@@H](NC(=O)[C@H](CO)NC(=O)[C@@H](N)CCCNC(=N)N)[C@@H](C)CC)[C@@H](C)O)C(=O)N[C@@H](CC(C)C)C(=O)N[C@@H](CCC(=O)O)C(=O)N[C@@H](CC(=O)O)C(=O)N[C@@H](CCC(=O)O)C(=O)O [Flu.PB1.675] was tested, and the IC50 (DRB1*0101) was 94 nM and the IC50 (DRB1*1302) was 71 nM.
CC[C@H](C)[C@H](NC(=O)[C@@H](NC(=O)[C@@H](N)CC(=O)O)C(C)C)C(=O)N[C@@H](CCSC)C(=O)N[C@@H](CCC(=O)O)C(=O)N[C@H](C(=O)N[C@H](C(=O)N[C@@H](Cc1ccccc1)C(=O)N1CCC[C@H]1C(=O)N[C@@H](CC(N)=O)C(=O)N[C@@H](CCC(=O)O)C(=O)N[C@H](C(=O)NCC(=O)N[C@@H](C)C(=O)N[C@@H](CCCNC(=N)N)C(=O)O)C(C)C)C(C)C)C(C)C [Flu.PB2.164] was tested, and the IC50 (DRB1*0401) was 1100 nM.
In the case of CC[C@H](C)[C@H](NC(=O)CNC(=O)[C@@H](NC(=O)[C@@H](N)CCSC)[C@@H](C)CC)C(=O)N[C@@H](CC(C)C)C(=O)N1CCC[C@H]1C(=O)N[C@@H](CC(=O)O)C(=O)N[C@@H](CCSC)C(=O)N[C@H](C(=O)N1CCC[C@H]1C(=O)N[C@@H](CO)C(=O)N[C@H](C(=O)N[C@@H](CCC(=O)O)C(=O)N[C@@H](CCSC)C(=O)N[C@@H](CO)C(=O)O)[C@@H](C)O)[C@@H](C)O [Flu.PB2.463], the IC50 (DRB1*0401) is reported as 31 nM.
